Converted amounts (≈) assume the structure as drawn. Residues, ends and D or L forms follow the SMILES beside them.
Columns and labels:
[1] = PSA peptide solubility testing (turbidity); details: for Solubility, peptides tested individually: pH 4 or pH 5 with succinate (10 mM) or glutamate (10 mM)
[2] = test system: CD3 T-cells co-cultured with autologous LCs; experiment: T-cell proliferation induced by treated LCs, alamarBlue; type: cell-based, human

In the case of `CC[C@H](C)[C@H](NC(=O)[C@H](Cc1c[nH]c2ccccc12)NC(=O)[C@@H](NC(=O)[C@@H](NC(=O)[C@H](CO)NC(=O)[C@H](CC(C)C)NC(=O)[C@@H](NC(=O)[C@H](CC(C)C)NC(=O)[C@H](Cc1ccccc1)NC(=O)[C@@H](NC(=O)[C@@H](NC(=O)[C@@H]1CCCN1C(=O)[C@@H](NC(=O)[C@H](Cc1c[nH]c2ccccc12)NC(=O)[C@H](CCSC)NC(C)=O)C(C)C)C(C)C)C(C)C)[C@@H](C)O)C(C)C)[C@@H](C)O)C(=O)NCC(=O)N[C@@H](C)C(=O)N[C@@H](C)C(=O)N1CCC[C@H]1C(=O)N[C@@H](CC(C)C)C(=O)N[C@H](C(=O)N[C@@H](CC(C)C)C(=O)N[C@@H](CO)C(=O)N[C@@H](CCCNC(=N)N)C(=O)N[C@H](C(=O)N[C@H](C(=O)NCC(=O)NCC(=O)N[C@@H](Cc1c[nH]c2ccccc12)C(=O)N[C@@H](CCC(=O)O)C(=O)N[C@@H](CS)C(=O)N[C@@H](CCC(=O)O)C(=O)N[C@@H](CCCCN)C(=O)N[C@@H](Cc1c[nH]cn1)C(=O)N[C@@H](CO)C(=O)N[C@@H](CCC(N)=O)C(=O)N1CCC[C@H]1C(=O)N[C@@H](Cc1c[nH]c2ccccc12)C(=O)N[C@@H](CCC(N)=O)C(=O)N[C@H](C(N)=O)C(C)C)C(C)C)[C@@H](C)CC)[C@@H](C)CC` [PSA 1-40, MWVPVVFLTLSVTWIGAAPLILSRIVGGWECEKHSQPWQV] (Ac-MWVPVVFLTLSVTWIGAAPLILSRIVGGWECEKHSQPWQV-NH2; N-terminus and C-terminus assumed), the Solubility ([1]; after dilution from 20 mg/ml to 5 mg/ml, 10 mM succinate, pH5.0 with 5% glycine) is reported as “remained insoluble”, the Solubility ([1]; at 20 mg/ml in 10 mM succinate, pH5.0 with 5% glycine) is reported as “insoluble” and the Solubility ([1]; in the presence of other PSA peptides) is reported as “solubility was enhanced”. The “Solubility, peptides tested individually” value [1] was “All except PSA 1-40 were soluble in both buffers” and the Solubility ([1]; pH 5) was 5500 µg/mL (≈ 1200 µM).
In the case of `CC[C@H](C)[C@H](NC(=O)[C@H](CS)NC(=O)[C@H](Cc1c[nH]cn1)NC(=O)[C@H](C)NC(=O)[C@H](C)NC(=O)[C@@H](NC(=O)[C@H](CC(C)C)NC(=O)[C@@H](NC(=O)[C@H](Cc1c[nH]c2ccccc12)NC(=O)[C@H](CCC(N)=O)NC(=O)[C@@H]1CCCN1C(=O)[C@H](Cc1c[nH]cn1)NC(=O)[C@@H](NC(=O)[C@H](CC(C)C)NC(=O)[C@@H](NC(=O)CNC(=O)CNC(=O)[C@H](CS)NC(=O)[C@@H](NC(=O)[C@H](C)NC(=O)[C@H](CCCNC(=N)N)NC(=O)CNC(=O)[C@H](CCCNC(=N)N)NC(=O)[C@H](CO)NC(=O)[C@H](C)NC(=O)[C@@H](NC(=O)[C@H](CC(C)C)NC(C)=O)C(C)C)C(C)C)C(C)C)C(C)C)C(C)C)[C@@H](C)O)C(=O)N[C@@H](CCCNC(=N)N)C(=O)N[C@@H](CC(N)=O)C(=O)N[C@@H](CCCCN)C(=O)N[C@@H](CO)C(=O)N[C@H](C(=O)N[C@H](C(=O)N[C@@H](CC(C)C)C(=O)N[C@@H](CC(C)C)C(=O)NCC(=O)N[C@@H](CCCNC(=N)N)C(=O)N[C@@H](Cc1c[nH]cn1)C(=O)N[C@@H](CO)C(=O)N[C@@H](CC(C)C)C(N)=O)[C@@H](C)CC)C(C)C` [PSA 41-80, LVASRGRAVCGGVLVHPQWVLTAAHCIRNKSVILLGRHSL] (Ac-LVASRGRAVCGGVLVHPQWVLTAAHCIRNKSVILLGRHSL-NH2; N-terminus and C-terminus assumed), the “Solubility, peptides tested individually” value [1] is reported as “soluble in both buffers”.
For `CSCC[C@H](NC(=O)[C@H](CC(=O)O)NC(=O)[C@H](Cc1ccc(O)cc1)NC(=O)[C@H](CC(C)C)NC(=O)[C@@H]1CCCN1C(=O)[C@H](Cc1c[nH]cn1)NC(=O)[C@@H]1CCCN1C(=O)[C@H](Cc1ccccc1)NC(=O)[C@H](CO)NC(=O)[C@H](Cc1c[nH]cn1)NC(=O)[C@H](CO)NC(=O)[C@@H](NC(=O)[C@H](CCC(N)=O)NC(=O)[C@H](Cc1ccccc1)NC(=O)[C@@H](NC(=O)[C@H](CCC(N)=O)NC(=O)CNC(=O)[C@@H](NC(=O)[C@H](CC(=O)O)NC(=O)[C@H](CCC(=O)O)NC(=O)[C@@H]1CCCN1C(=O)[C@H](Cc1c[nH]cn1)NC(=O)[C@H](Cc1ccccc1)NC(C)=O)[C@@H](C)O)C(C)C)C(C)C)C(=O)N[C@@H](CO)C(=O)N[C@@H](CC(C)C)C(=O)N[C@@H](CC(C)C)C(=O)N[C@@H](CCCCN)C(=O)N[C@@H](CC(N)=O)C(=O)N[C@@H](CCCNC(=N)N)C(=O)N[C@@H](Cc1ccccc1)C(=O)N[C@@H](CC(C)C)C(=O)N[C@@H](CCCNC(=N)N)C(=O)N1CCC[C@H]1C(=O)NCC(=O)N[C@@H](CC(=O)O)C(=O)N[C@@H](CC(=O)O)C(=O)N[C@@H](CO)C(=O)N[C@@H](CO)C(=O)N[C@@H](Cc1c[nH]cn1)C(=O)N[C@@H](CC(=O)O)C(N)=O` [PSA 81-120, FHPEDTGQVFQVSHSFPHPLYDMSLLKNRFLRPGDDSSHD] (Ac-FHPEDTGQVFQVSHSFPHPLYDMSLLKNRFLRPGDDSSHD-NH2; N-terminus and C-terminus assumed), the “Solubility, peptides tested individually” value [1] was “soluble in both buffers”.
With `CC[C@H](C)[C@H](NC(=O)[C@H](Cc1c[nH]c2ccccc12)NC(=O)[C@H](CCCCN)NC(=O)[C@H](CCCNC(=N)N)NC(=O)[C@H](Cc1ccc(O)cc1)NC(=O)[C@H](Cc1c[nH]cn1)NC(=O)[C@@H](NC(=O)[C@@H](NC(=O)[C@H](CCCCN)NC(=O)[C@@H](NC(=O)[C@H](Cc1ccc(O)cc1)NC(=O)[C@H](CC(C)C)NC(=O)[C@H](CO)NC(C)=O)[C@@H](C)O)C(C)C)C(C)C)C(=O)N[C@@H](CCCCN)C(=O)N[C@@H](CC(=O)O)C(=O)N[C@H](C(=O)N[C@H](C(=O)N[C@H](C(=O)N[C@@H](C)C(=O)N[C@@H](CC(N)=O)C(=O)N1CCC[C@H]1C(N)=O)C(C)C)[C@@H](C)CC)[C@@H](C)O` [PSA 241-261, SLYTKVVHYR KWIKDTIVAN P] (Ac-SLYTKVVHYRKWIKDTIVANP-NH2; N-terminus and C-terminus assumed) the “Solubility, peptides tested individually” value [1] was “soluble in both buffers”.
With tetanus toxoid the T-cell proliferation ([2]; over media, 7 days co-culture of T cells with autologous LCs) was “no significant increase over media” and the “Measurable proliferation, increased fluorescence” value ([2]; subjects 2 and 5) was ≥ 5000.
